# What was measured:
# Eimeria tenella = assay: efficacy against coccidial infections in chickens (Table II); assay type: in vivo; details: for Ratio: lesion score treated / infected control; for % Weight Gain / Average Degree of Infection: chicks; for Average Degree of Infection: lesion score 0 to 4, six days
# Protocol: (§1) Efficacy data for Antibiotic CP-63,517 and its salts against coccidial infections in chickens was obtained in the following fashion. Groups of 3-5 ten-day old SPF white leghorn cockerel chicks were fed a mash diet containing Antibiotic CP-63,517, its sodium and/or potassium salt, or the known agents Monensin or Stenorol uniformly dispersed therein. After being on this ration for 24 hours each chick was inoculated per os with oocysts of the particular species of Eimeria being tested. Other groups of 3-5 ten-day old chicks were fed a similar mash diet free of any test compound. They were also infected after 24 hours and served as infected controls. Yet another group of 3-5 ten-day old chicks were fed the mash diet free of any test compound and were not infected with coccidia. These served as normal controls. The results of treatment were evaluated after five days in the case of E. acervulina, and six days for other challenges.
# (§2) ^1 The criteria used to measure anticoccidial activity consisted of
# (§3) lesion scores of 0 to 4 for Eimeria tenella after J. E. Lynch, "A New
# (§4) Method for the Primary Evaluation of Anticoccidial Activity", Am. J. Vet.
# (§5) modification of the scoring system devised by J. Johnson and W. H. Reid,
# (§6) "Anticoccidial Drugs. Lesion Scoring Techniques in Battery and Floor Pen
# (§7) Experiments in Chicks", Exp. Parasit. 28: 30-36 (1970). A constant ratio
# (§8) was established by dividing the lesion score of each treated group by the
# (§9) lesion score of the infected control.
# rumen fluid = assay: in vitro rumen technique, propionic acid production; set-up: species or system calf
# Protocol: The value of animal feeds generally has been determined directly by feeding the animal. British Pat. No. 1,197,826 details an in vitro rumen technique whereby the changes occurring in feeds brought about by microorganisms are measured more readily and with great accuracy in the evaluation of animal feeds. This technique involves the use of an apparatus in which the digestive processes of the animals are conducted and studied in vitro. The animal feeds, rumen inoculum and various growth promotants are introduced into and withdrawn from a laboratory unit under carefully controlled conditions and the changes taken place are studied critically and progressively during the consumption of the feed by the microorganisms. […] The change in propionic acid content is expressed as percent of the propionic acid content found in the control rumen fluid. Long term in vivo feeding studies are used to show a reliable correlation between propionic acid increase in the rumen fluid and improved animal performance.
# Rumen fluid is collected from a fistulated calf which is fed on a commercial fattening ration plus hay. The rumen fluid is immediately filtered through cheese cloth, and 10 ml added to a 50 ml conical flask containing 400 mg of standard substrate (68% corn starch +17% cellulose +15% extracted soybean meal), 10 ml of a pH 6.8 buffer and the test compound. The flasks are gassed with oxygen free nitrogen for about two minutes, and incubated in a shaking water bath at 39° C. for about 16 hours. All tests are conducted in triplicate.
# After incubation, 5 ml of the sample is mixed with 1 ml of 25% metaphosphoric acid. After 10 minutes 0.25 ml of formic acid is added and the mixture centrifuged at 1500 RPM for 10 minutes. Samples are then analyzed by gas-liquid chromatography by the method of D. W. Kellog, J. Dairy Science, 52, 1690 (1969). Peak heights for acetic, propionic and butyric acids are determined for samples from untreated and treated incubation flasks.
# Eimeria acervulina = assay: efficacy against coccidial infections in chickens (Table II); assay type: in vivo; details: 9 ppm in diet; for Ratio: lesion score treated / infected control; for % Weight Gain / Average Degree of Infection: chicks; for Average Degree of Infection: lesion score 0 to 3, five days
# Protocol: as §1, §2, §3, §4, §5, §6, §7, §8, §9
# [1] = 53 ppm in diet, replicate (in parentheses)
# [2] = 120 ppm in diet, replicate (in parentheses)
# [3] = 0.75 ppm in diet, replicate (in parentheses)
# [4] = 3 ppm in diet, replicate (in parentheses)
# [5] = 9 ppm in diet, replicate (in parentheses)
compound,measurement,setting,value
CC[C@@]1([C@@H]2O[C@@H]([C@H]3O[C@@](O)(CO)[C@H](C)C[C@@H]3C)C[C@@H]2C)CC[C@H]([C@]2(C)CC[C@]3(C[C@H](O)[C@@H](C)[C@@H]([C@@H](C)[C@@H](OC)[C@H](C)C(=O)O)O3)O2)O1 [Monensin],Ratio,Eimeria tenella; 53 ppm in diet,0.69
same,Ratio,Eimeria tenella; [1],0.54
same,Ratio,Eimeria tenella; 120 ppm in diet,0.09
same,Ratio,Eimeria tenella; [2],0.32
same,% Weight Gain,Eimeria tenella; 53 ppm in diet,92%
same,Average Degree of Infection,Eimeria tenella; 53 ppm in diet,2.3
same,Average Degree of Infection,Eimeria tenella; [1],1.7
same,% Weight Gain,Eimeria tenella; [1],99%
same,% Weight Gain,Eimeria tenella; 120 ppm in diet,71%
same,Average Degree of Infection,Eimeria tenella; 120 ppm in diet,0.3
same,Average Degree of Infection,Eimeria tenella; [2],1.0
same,% Weight Gain,Eimeria tenella; [2],68%
same,increase in production of propionic acid over control,"rumen fluid; 10 micrograms per milliliter (10 μg/ml), comparison with Monensin",about 20%
"CC[C@@H](C(=O)[C@@H](C)[C@@H](O)[C@H](C)[C@@H]1O[C@@H]([C@@H](CC)C(=O)O)CC[C@@H]1C)[C@H]1O[C@]2(C=C[C@@H](O)[C@]3(CC[C@@](C)([C@H]4CC[C@](O)(CC)[C@H](C)O4)O3)O2)[C@H](C)C[C@@H]1C [Salinomycin, reference compound]",increase in propionic acid,"rumen fluid; 10 μg/ml, comparison with Salinomycin",about 65%
O=C(CC1NCCCC1O)Cn1cnc2cc(Br)c(Cl)cc2c1=O (centres unmarked) [Stenorol],Ratio,Eimeria tenella; 0.75 ppm in diet,0.51
same,Ratio,Eimeria tenella; [3],0.73
same,Ratio,Eimeria tenella; 3 ppm in diet,0.0
same,Ratio,Eimeria tenella; [4],0.0
same,Ratio,Eimeria tenella; 9 ppm in diet,0.0
same,Ratio,Eimeria tenella; [5],0.0
same,% Weight Gain,Eimeria tenella; 0.75 ppm in diet,66%
same,Average Degree of Infection,Eimeria tenella; 0.75 ppm in diet,1.7
same,Average Degree of Infection,Eimeria tenella; [3],2.3
same,% Weight Gain,Eimeria tenella; [3],90%
same,% Weight Gain,Eimeria tenella; 3 ppm in diet,86%
same,Average Degree of Infection,Eimeria tenella; 3 ppm in diet,0.0
same,Average Degree of Infection,Eimeria tenella; [4],0.0
same,% Weight Gain,Eimeria tenella; [4],103%
same,% Weight Gain,Eimeria tenella; 9 ppm in diet,63%
same,Average Degree of Infection,Eimeria tenella; 9 ppm in diet,0.0
same,Average Degree of Infection,Eimeria tenella; [5],0.0
same,% Weight Gain,Eimeria tenella; [5],77%
same,Ratio,Eimeria acervulina,0.0
same,Ratio,Eimeria acervulina; replicate (in parentheses),0.0
same,% Weight Gain,Eimeria acervulina,48%
same,Average Degree of Infection,Eimeria acervulina,0.0
same,Average Degree of Infection,Eimeria acervulina; replicate (in parentheses),0.0
same,% Weight Gain,Eimeria acervulina; replicate (in parentheses),51%

# — patent US4552843A, “Process for producing an acidic polycyclic ether antibiotic by cultivation of a novel strain of Streptomyces endus subspecies aureus” (Pfizer Inc., priority 1984, dated 1985)
